In US10206937B2, “Boronic acid derivatives and therapeutic uses thereof” (Qpex Biopharma, Inc., priority 2014, dated 2019):

Assays:
[1] = target: T1, NDM-1 (Klebsiella pneumoniae, UniProt C7C422); test: biochemical; details: cleavage of imipenem (100 uM) by NDM-1; read-out: Ki, Imipenem
[2] = target: T2, VIM-1 (Pseudomonas aeruginosa, UniProt A0A0F7KYQ8); test: biochemical; details: cleavage of nitrocefin (200 uM) by VIM-1 supernatant
T2 construct: made in house; host or cells: ECM6711 strain carrying pUCP24-VIM-1 plasmid; culture supernatant used unpurified

[3] = target: T1, NDM-1; test: Inhibition of purified class B carbapenemase NDM-1 (Ki, imipenem substrate); assay type: biochemical; details: NDM-1, substrate imipenem; read-out: Ki NDM-1, Imipenem
[4] = target: purified class A, C and D enzymes (Enterobacter cloacae, UniProt P05364); assay type: biochemical; details: purified P99/AmpC of ECL; nitrocefin reporter substrate
[5] = target: purified class A, C and D enzymes (Escherichia coli, UniProt Q9L5C7); assay type: biochemical; details: purified CTX-M-14; nitrocefin reporter substrate
[6] = target: T3, purified class A, C and D enzymes (UniProt P0AD64, L31Q/G234S/E235K, species not given); assay type: biochemical; details: read-out: Ki (SHV-12, NCF); purified SHV-12; nitrocefin reporter substrate
T3 construct: Ki (SHV-12, NCF); other: purified SHV-12; nitrocefin reporter substrate
T3 sequence (P0AD64 1-286 L31Q/G234S/E235K): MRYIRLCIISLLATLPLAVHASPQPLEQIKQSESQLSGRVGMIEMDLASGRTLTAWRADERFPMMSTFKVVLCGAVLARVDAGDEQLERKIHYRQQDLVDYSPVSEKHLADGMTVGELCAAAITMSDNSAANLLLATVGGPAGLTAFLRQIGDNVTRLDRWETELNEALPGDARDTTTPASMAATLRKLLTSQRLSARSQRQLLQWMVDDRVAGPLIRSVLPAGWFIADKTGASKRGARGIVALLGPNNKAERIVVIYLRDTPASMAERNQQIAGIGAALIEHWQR

[7] = target: T4, purified class A, C and D enzymes (UniProt Q6XEC0); assay type: biochemical; details: read-out: Ki (OXA-48, NCF); purified OXA-48; nitrocefin reporter substrate
T4 construct: rows headed: Ki (OXA-48, NCF); other: purified OXA-48; nitrocefin reporter substrate

[8] = target: T5, purified class A, C and D enzymes (UniProt Q9F663); assay type: biochemical; details: read-out: Ki (KPC-2, NCF); purified KPC-2; nitrocefin reporter substrate
T5 construct: rows headed: Ki (KPC-2, NCF); other: purified KPC-2; nitrocefin reporter substrate

T1 sequence (C7C422 29-270, looked up, species assumed): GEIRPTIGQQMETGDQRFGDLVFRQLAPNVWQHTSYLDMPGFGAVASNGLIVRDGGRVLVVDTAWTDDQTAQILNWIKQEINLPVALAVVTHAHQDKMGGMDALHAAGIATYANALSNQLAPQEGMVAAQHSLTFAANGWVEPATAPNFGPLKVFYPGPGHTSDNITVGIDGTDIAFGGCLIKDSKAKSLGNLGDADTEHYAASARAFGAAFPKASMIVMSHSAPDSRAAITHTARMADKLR
Chain of purified class A, C and D enzymes (Escherichia coli, UniProt Q9L5C7) (Q9L5C7 entry or part of it): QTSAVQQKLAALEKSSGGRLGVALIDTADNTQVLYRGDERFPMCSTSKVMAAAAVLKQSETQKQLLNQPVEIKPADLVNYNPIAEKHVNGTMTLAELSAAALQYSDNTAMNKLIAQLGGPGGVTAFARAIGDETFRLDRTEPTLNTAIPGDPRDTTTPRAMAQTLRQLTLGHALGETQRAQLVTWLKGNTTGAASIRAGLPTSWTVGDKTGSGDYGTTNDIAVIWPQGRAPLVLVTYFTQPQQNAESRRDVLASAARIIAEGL
Chain of purified class A, C and D enzymes (Enterobacter cloacae, UniProt P05364) (P05364 21-381): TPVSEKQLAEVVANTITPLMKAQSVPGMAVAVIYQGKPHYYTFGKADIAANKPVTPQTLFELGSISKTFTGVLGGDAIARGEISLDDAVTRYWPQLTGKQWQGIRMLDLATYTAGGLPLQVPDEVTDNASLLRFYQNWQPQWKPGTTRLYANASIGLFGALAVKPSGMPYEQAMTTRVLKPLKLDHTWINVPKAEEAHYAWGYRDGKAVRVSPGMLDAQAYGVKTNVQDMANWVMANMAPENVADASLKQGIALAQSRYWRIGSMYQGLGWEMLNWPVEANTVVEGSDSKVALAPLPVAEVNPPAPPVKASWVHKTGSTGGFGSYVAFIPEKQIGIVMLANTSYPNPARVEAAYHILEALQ

`Nc1nnc(S[C@H]2Cc3cc(F)c(F)c(C(=O)O)c3OB2O)s1` [Compound 37, (R)-3-(5-amino-1,3,4-thiadiazol-2-ylthio)-6,7-difluoro-2-hydroxy-3,4-dihydro-2H-benzo[e][1,2]oxaborinine-8-carboxylic acid] gave a Ki [1] of 10 to 100 nM, an IC50 [2] of no less than 1000 nM and a Ki [3] of 10 to 100 nM. The “Ki (P99/AmpC of ECL, NCF)” value [4] was “Z (Greater than 1 μM)”, the “Ki (CTX-M-14, NCF)” value [5] was “X (Less than 0.1 μM)” and the Ki [6] was less than 100 nM. It also gave a Ki [7] of less than 100 nM and a Ki [8] of less than 100 nM.
Molecule `Nc1nnc(S[C@H]2Cc3ccc(OCC(=O)NC4CNC4)c(C(=O)O)c3OB2O)s1` [Compound 81, (3R)-3-[(5-amino-1,3,4-thiadiazol-2-yl)sulfanyl]-7-[2-(azetidin-3-ylamino)-2-oxo-ethoxy]-2-hydroxy-3,4-dihydro-1,2-benzoxaborinine-8-carboxylic acid] has a Ki [1] greater than 100 nM, an IC50 [2] of no less than 1000 nM and a Ki [3] greater than 100 nM. For the same molecule, the “Ki (P99/AmpC of ECL, NCF)” value [4] was “Y (0.1 μM to 1 μM)”, the “Ki (CTX-M-14, NCF)” value [5] was “X (Less than 0.1 μM)” and the Ki [6] was less than 100 nM. For the same molecule, the Ki [7] was less than 100 nM and the Ki [8] was greater than 1000 nM.
`COc1ccc2c(c1C(=O)O)OB(O)[C@@H](Sc1nc(N)ns1)C2` [Compound 74, (3R)-3-[(3-amino-1,2,4-thiadiazol-5-yl)sulfanyl]-2-hydroxy-7-methoxy-3,4-dihydro-1,2-benzoxaborinine-8-carboxylic acid] was tested, and the Ki [1] was greater than 100 nM, the IC50 [2] was less than 1000 nM and the Ki [3] was greater than 100 nM. For the same molecule, the “Ki (P99/AmpC of ECL, NCF)” value [4] was “Y (0.1 μM to 1 μM)”, the “Ki (CTX-M-14, NCF)” value [5] was “X (Less than 0.1 μM)” and the Ki [6] was less than 100 nM. The Ki [7] was less than 100 nM and the Ki [8] was less than 100 nM.
For `COc1ccc2c(c1C(=O)O)OB(O)[C@@H](Sc1nnc(CN)n1N)C2` [Compound 66, (3R)-3-[[4-amino-5-(aminomethyl)-1,2,4-triazol-3-yl]sulfanyl]-2-hydroxy-7-methoxy-3,4-dihydro-1,2-benzoxaborinine-8-carboxylic acid], the Ki [1] was 10 to 100 nM, the IC50 [2] was less than 1000 nM and the Ki [3] was 10 to 100 nM. For the same molecule, the “Ki (P99/AmpC of ECL, NCF)” value [4] was “Z (Greater than 1 μM)”, the “Ki (CTX-M-14, NCF)” value [5] was “X (Less than 0.1 μM)” and the Ki [6] was less than 100 nM. The Ki [7] was 100 to 1000 nM and the Ki [8] was 100 to 1000 nM.
`Nc1nnc(S[C@H]2Cc3c(F)cc(F)c(C(=O)O)c3OB2O)s1` [Compound 33, (R)-3-(5-amino-1,3,4-thiadiazol-2-ylthio)-5,7-difluoro-2-hydroxy-3,4-dihydro-2H-benzo[e][1,2]oxaborinine-8-carboxylic acid] gave a Ki [1] greater than 100 nM, an IC50 [2] of no less than 1000 nM and a Ki [3] of 10 to 100 nM. For the same molecule, the “Ki (P99/AmpC of ECL, NCF)” value [4] was “X (Less than 0.1 μM)”, the “Ki (CTX-M-14, NCF)” value [5] was “X (Less than 0.1 μM)” and the Ki [6] was less than 100 nM. The Ki [7] was less than 100 nM and the Ki [8] was 100 to 1000 nM.
`Nc1nnc(S[C@H]2Cc3cc4nc[nH]c4c(C(=O)O)c3OB2O)s1` [Compound 115, (3R)-3-[(5-amino-1,3,4-thiadiazol-2-yl)sulfanyl]-2-hydroxy-4,8-dihydro-3H-oxaborinino[6,5-f]benzimidazole-9-carboxylic acid] showed a Ki [1] greater than 100 nM, an IC50 [2] of less than 1000 nM and a Ki [3] greater than 100 nM. The “Ki (P99/AmpC of ECL, NCF)” value [4] was “X (Less than 0.1 μM)”, the “Ki (CTX-M-14, NCF)” value [5] was “X (Less than 0.1 μM)” and the Ki [6] was less than 100 nM. The Ki [7] was less than 100 nM and the Ki [8] was 100 to 1000 nM.
`O=C(O)c1c(OCC(F)F)ccc2c1OB(O)[C@@H](Sc1nncs1)C2` [Compound 91, (3R)-7-(2,2-difluoroethoxy)-2-hydroxy-3-(1,3,4-thiadiazol-2-ylsulfanyl)-3,4-dihydro-1,2-benzoxaborinine-8-carboxylic acid] was tested, and the Ki [1] was 10 to 100 nM, the IC50 [2] was less than 1000 nM and the Ki [3] was 10 to 100 nM. For the same molecule, the “Ki (P99/AmpC of ECL, NCF)” value [4] was “Y (0.1 μM to 1 μM)”, the “Ki (CTX-M-14, NCF)” value [5] was “X (Less than 0.1 μM)” and the Ki [6] was less than 100 nM. It also gave a Ki [7] of less than 100 nM and a Ki [8] of 100 to 1000 nM.
In the case of `N#CCS[C@H]1Cc2ccc(F)c(C(=O)O)c2OB1O` [Compound 51, (3R)-3-(cyanomethylsulfanyl)-7-fluoro-2-hydroxy-3,4-dihydro-1,2-benzoxaborinine-8-carboxylic acid], the Ki [1] is reported as greater than 100 nM, the IC50 [2] is reported as no less than 1000 nM and the Ki [3] is reported as greater than 100 nM. For the same molecule, the “Ki (P99/AmpC of ECL, NCF)” value [4] was “Z (Greater than 1 μM)”, the “Ki (CTX-M-14, NCF)” value [5] was “X (Less than 0.1 μM)” and the Ki [6] was less than 100 nM. For the same molecule, the Ki [7] was less than 100 nM and the Ki [8] was less than 100 nM.
Molecule `COc1ccc2c(c1C(=O)O)OB(O)[C@@H](Sc1nc(N)n[nH]1)C2` [Compound 82, (3R)-3-[(3-amino-1H-1,2,4-triazol-5-yl)sulfanyl]-2-hydroxy-7-methoxy-3,4-dihydro-1,2-benzoxaborinine-8-carboxylic acid] has a Ki [1] of less than 10 nM, an IC50 [2] of less than 1000 nM and a Ki [3] of less than 10 nM. The “Ki (P99/AmpC of ECL, NCF)” value [4] was “Y (0.1 μM to 1 μM)”, the “Ki (CTX-M-14, NCF)” value [5] was “X (Less than 0.1 μM)” and the Ki [6] was less than 100 nM. For the same molecule, the Ki [7] was less than 100 nM and the Ki [8] was 100 to 1000 nM.
`COc1ccc2c(c1C(=O)O)OB(O)[C@@H](Sc1ncns1)C2` [Compound 75, (3R)-2-hydroxy-7-methoxy-3-(1,2,4-thiadiazol-5-ylsulfanyl)-3,4-dihydro-1,2-benzoxaborinine-8-carboxylic acid] showed a Ki [1] greater than 100 nM, an IC50 [2] of less than 1000 nM and a Ki [3] greater than 100 nM. For the same molecule, the “Ki (P99/AmpC of ECL, NCF)” value [4] was “Y (0.1 μM to 1 μM)”, the “Ki (CTX-M-14, NCF)” value [5] was “X (Less than 0.1 μM)” and the Ki [6] was less than 100 nM. For the same molecule, the Ki [7] was less than 100 nM and the Ki [8] was less than 100 nM.
`COCc1ccc2c(c1C(=O)O)OB(O)[C@@H](Sc1nnc(N)s1)C2` [Compound 35, (R)-3-(5-amino-1,3,4-thiadiazol-2-ylthio)-2-hydroxy-7-(methoxymethyl)-3,4-dihydro-2H-benzo[e][1,2]oxaborinine-8-carboxylic acid] was tested, and the Ki [1] was 10 to 100 nM, the IC50 [2] was less than 1000 nM and the Ki [3] was 10 to 100 nM. For the same molecule, the “Ki (P99/AmpC of ECL, NCF)” value [4] was “Y (0.1 μM to 1 μM)”, the “Ki (CTX-M-14, NCF)” value [5] was “X (Less than 0.1 μM)” and the Ki [6] was less than 100 nM. The Ki [7] was less than 100 nM and the Ki [8] was less than 100 nM.
For `COCCOc1ccc2c(c1C(=O)O)OB(O)[C@@H](Sc1nncs1)C2` [Compound 89, (3R)-2-hydroxy-7-(2-methoxyethoxy)-3-(1,3,4-thiadiazol-2-ylsulfanyl)-3,4-dihydro-1,2-benzoxaborinine-8-carboxylic acid], the Ki [1] was 10 to 100 nM, the IC50 [2] was less than 1000 nM and the Ki [3] was 10 to 100 nM. For the same molecule, the “Ki (P99/AmpC of ECL, NCF)” value [4] was “Z (Greater than 1 μM)”, the “Ki (CTX-M-14, NCF)” value [5] was “X (Less than 0.1 μM)” and the Ki [6] was less than 100 nM. For the same molecule, the Ki [7] was less than 100 nM and the Ki [8] was 100 to 1000 nM.
In the case of `Nc1nnc(S[C@H]2Cc3ccc(O)c(C(=O)O)c3OB2O)s1` [Compound 44, (R)-3-(5-amino-1,3,4-thiadiazol-2-ylthio)-2,7-dihydroxy-3,4-dihydro-2H-benzo[e][1,2]oxaborinine-8-carboxylic acid], the Ki [1] is reported as less than 10 nM, the IC50 [2] is reported as less than 1000 nM and the Ki [3] is reported as less than 10 nM. The “Ki (P99/AmpC of ECL, NCF)” value [4] was “X (Less than 0.1 μM)”, the “Ki (CTX-M-14, NCF)” value [5] was “X (Less than 0.1 μM)” and the Ki [6] was less than 100 nM. For the same molecule, the Ki [7] was less than 100 nM and the Ki [8] was less than 100 nM.
In the case of `COc1ccc2c(c1C(=O)O)OB(O)[C@@H](Sc1nnc(NC3CNC3)s1)C2` [Compound 96, (3R)-3-[[5-(azetidin-3-ylamino)-1,3,4-thiadiazol-2-yl]sulfanyl]-2-hydroxy-7-methoxy-3,4-dihydro-1,2-benzoxaborinine-8-carboxylic acid], the Ki [1] is reported as less than 10 nM, the IC50 [2] is reported as less than 1000 nM and the Ki [3] is reported as less than 10 nM. The “Ki (P99/AmpC of ECL, NCF)” value [4] was “Y (0.1 μM to 1 μM)”, the “Ki (CTX-M-14, NCF)” value [5] was “X (Less than 0.1 μM)” and the Ki [6] was less than 100 nM. It also gave a Ki [7] of less than 100 nM and a Ki [8] of 100 to 1000 nM.
`COc1cc(OC)c(C(=O)O)c2c1C[C@H](Sc1nnc(N)s1)B(O)O2` [Compound 32, (R)-3-(5-amino-1,3,4-thiadiazol-2-ylthio)-2-hydroxy-5,7-dimethoxy-3,4-dihydro-2H-benzo[e][1,2]oxaborinine-8-carboxylic acid] showed a Ki [1] of 10 to 100 nM, an IC50 [2] of no less than 1000 nM and a Ki [3] of 10 to 100 nM. The “Ki (P99/AmpC of ECL, NCF)” value [4] was “X (Less than 0.1 μM)”, the “Ki (CTX-M-14, NCF)” value [5] was “X (Less than 0.1 μM)” and the Ki [6] was less than 100 nM. The Ki [7] was less than 100 nM and the Ki [8] was less than 100 nM.
Molecule `COc1ccc2c(c1C(=O)O)OB(O)[C@@H](Sc1nnc(NCCNC3CNC3)s1)C2` [Compound 105, (3R)-3-[[5-[2-(azetidin-3-ylamino)ethylamino]-1,3,4-thiadiazol-2-yl]sulfanyl]-2-hydroxy-7-methoxy-3,4-dihydro-1,2-benzoxaborinine-8-carboxylic acid] has a Ki [1] of less than 10 nM, an IC50 [2] of less than 1000 nM and a Ki [3] of less than 10 nM. For the same molecule, the “Ki (P99/AmpC of ECL, NCF)” value [4] was “Y (0.1 μM to 1 μM)”, the “Ki (CTX-M-14, NCF)” value [5] was “X (Less than 0.1 μM)” and the Ki [6] was less than 100 nM. For the same molecule, the Ki [7] was less than 100 nM and the Ki [8] was 100 to 1000 nM.
